Test results reported in patent US11931365B2, “Use of PPAR-delta agonists in the treatment of disease” (Reneo Pharmaceuticals, Inc., priority 2022, dated 2024).

Legend:
FXR = FXR (Homo sapiens, UniProt Q96RI1); experiment: Nuclear receptor activity
LXRβ = LXRβ (Homo sapiens, UniProt P55055); experiment: Nuclear receptor activity
human muscle cell lines = experiment: Fatty acid oxidation in muscle cell lines; type: cell-based
[1] = system: Angiopoietin-like 4 (ANGPTL4); experiment: In vivo expression of PPAR regulated target gene in muscle; settings: rat muscle
VLCAD = VLCAD enzymatic activity in cultured fibroblasts from FAOD patients with VLCAD deficiency; type: cell-based, human; settings: fibroblasts from symptomatic VLCAD deficient patients
[2] = system: patients with FAOD (CPT2, VLCAD, LCHAD, TFP); experiment: Clinical trial for fatty acid oxidation disorder (FAOD); type: in vivo, human; settings: for 12 MWT Mean Change / MFIS Total Mean Change / SF-36 Energy/Fatigue Mean Change / decrease in MFIS / increase in SF-36 energy/fatigue domain: Baseline to Week 12
Source text: Purpose: The purposes of this study were: to assess the safety and tolerability of 12 weeks treatment with Compound I, or a pharmaceutically acceptable salt or solvate thereof (e.g., Compound II), in patients with FAOD; to investigate pharmacokinetics of Compound I, or a pharmaceutically acceptable salt or solvate thereof (e.g., Compound II), in patients with FAOD treated with Compound I, or a pharmaceutically acceptable salt or solvate thereof (e.g., Compound II); to investigate the pharmacodynamics effects of Compound I, or a pharmaceutically acceptable salt or solvate thereof (e.g., Compound II), in patients with FAOD treated with Compound I, or a pharmaceutically acceptable salt or solvate thereof (e.g., Compound II).
Intervention: Patients were administered 10-200 mg of Compound I, or a pharmaceutically acceptable salt or solvate thereof (e.g., Compound II), per day as single agent or in combination. In one cohort, patients received 50 mg of Compound I, or a pharmaceutically acceptable salt or solvate thereof (e.g., Compound II), once daily for a total of 12 weeks. In another cohort, patients received 100 mg of Compound I, or a pharmaceutically acceptable salt or solvate thereof (e.g., Compound II), once daily for a total of 12 weeks.
Detailed Description: Patients were given Compound I, or a pharmaceutically acceptable salt or solvate thereof, orally once a day.
Inclusion Criteria: Confirmed diagnosis of one of the following: carnitine palmitoyl transferase II deficiency (CPT2), very long-chain Acyl-CoA dehydrogenase deficiency (VLCAD), long-chain 3-hydroxyacyl-CoA dehydrogenase deficiency (LCHAD), or trifunctional protein deficiency (TFP).
Primary Outcome Measures: Safety Endpoints included: number and severity of adverse events. Absolute values, changes from baseline at Week 12 and incidence of clinically significant changes in: laboratory safety tests; electrocardiograms; supine vital signs; evaluation of events of special interest (rhabdomyolysis) and clinically significant changes in laboratory parameters of muscle injury including total CPK, adolase, and cardiac specific troponin (cTn).
Pharmacodynamic Endpoints included: Absolute values and changes from baseline at Week 12 in: whole body fatty acid oxidation (^13CO2 production) and blood acylcarnitines (UHPLC-MS/MS method).
Secondary Outcome Measures: Assessment of the change from baseline following 12 weeks of treatment with Compound I, or a pharmaceutically acceptable salt or solvate thereof (e.g., Compound II), in: submaximal treadmill exercise tolerance; distance walked during a 12 minute walk test; 36-Item Short Form Survey (SF-36) total score and subscales (questions 3-12). Change from baseline in Fatigue Impact Scale score (every visit). Change from baseline in Brief Pain Inventory (short form) (every visit). Blood inflammatory cytokines (Multiplex Immunoassay for sE-Selectin; GM-CSF; ICAM-1/CD54; IFN alpha; IFN gamma; IL-1 alpha; IL-1 beta; IL-4; IL-6; IL-8; IL-10; IL-12p70; IL-13; IL-17A/CTLA-8; IP-10/CXCL10; MCP-1/CCL2; MIP-1alpha/CCL3; MIP-1 beta/CCL4; sP-Selectin; TNF alpha).

[3] = 24 patients, 50 or 100 mg/day, 12 weeks

Chain of FXR (Q96RI1 whole entry, species assumed): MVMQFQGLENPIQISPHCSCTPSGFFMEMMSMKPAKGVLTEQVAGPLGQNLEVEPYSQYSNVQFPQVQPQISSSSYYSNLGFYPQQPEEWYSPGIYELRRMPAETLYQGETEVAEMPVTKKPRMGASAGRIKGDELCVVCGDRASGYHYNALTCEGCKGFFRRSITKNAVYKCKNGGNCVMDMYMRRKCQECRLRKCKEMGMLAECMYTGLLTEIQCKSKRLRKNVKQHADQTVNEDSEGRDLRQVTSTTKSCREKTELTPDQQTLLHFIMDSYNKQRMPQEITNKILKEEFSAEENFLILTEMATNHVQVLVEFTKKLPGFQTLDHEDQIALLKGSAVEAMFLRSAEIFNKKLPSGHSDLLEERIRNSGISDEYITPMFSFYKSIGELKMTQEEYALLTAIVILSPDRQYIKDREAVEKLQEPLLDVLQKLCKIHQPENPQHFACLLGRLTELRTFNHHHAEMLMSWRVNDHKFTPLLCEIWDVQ
Chain of LXRβ (P55055 whole entry): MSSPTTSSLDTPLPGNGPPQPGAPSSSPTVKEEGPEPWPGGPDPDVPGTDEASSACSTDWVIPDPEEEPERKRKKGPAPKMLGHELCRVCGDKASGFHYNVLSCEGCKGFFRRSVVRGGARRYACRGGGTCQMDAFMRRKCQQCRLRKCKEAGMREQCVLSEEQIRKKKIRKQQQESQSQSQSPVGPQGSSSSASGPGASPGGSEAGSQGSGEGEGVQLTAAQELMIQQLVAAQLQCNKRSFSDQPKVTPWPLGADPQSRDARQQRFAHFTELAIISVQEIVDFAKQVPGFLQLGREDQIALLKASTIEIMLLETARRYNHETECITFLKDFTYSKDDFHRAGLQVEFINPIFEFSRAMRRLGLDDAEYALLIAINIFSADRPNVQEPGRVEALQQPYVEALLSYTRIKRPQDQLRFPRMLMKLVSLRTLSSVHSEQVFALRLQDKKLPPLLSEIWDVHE

activity on nuclear receptor FXR (FXR): did not show any
activity on nuclear receptor LXRβ (LXRβ): did not show any
patients discontinuing treatment [2, 3]: 12.5%
Compound: Cc1cc(OC/C=C(/c2ccc(F)cc2)c2ccc(C#CCN3CCOCC3)cc2)ccc1OCC(=O)O [Compound I, (E)-2-(4-((3-(4-fluorophenyl)-3-(4-(3-morpholinoprop-1-yn-1-yl)phenyl)allyl)oxy)-2-methylphenoxy)acetic acid]
fatty acid oxidation (human muscle cell lines): dose-dependent increase
expression of ANGPTL4 [1]: increased the expression
VLCAD enzymatic activity (VLCAD): increased
distance walked during a 12-minute walk test ([2]; 50 mg once daily, 12 weeks): able to increase distance walked
exhaled 13CO2 ([2]; 50 mg once daily, 12 weeks): trend towards increases
heart rate during the last ten minutes of exercise ([2]; 50 mg once daily, 12 weeks): decreases
TEAEs reported as study drug related [2, 3]: 30%
patients reporting rhabdomyolysis (most common TEAE) [2, 3]: 16.7%
patients reporting treatment-emergent adverse events (TEAEs) [2, 3]: 75%
severity of the majority of study drug related TEAEs [2, 3]: mild or moderate
12 MWT Mean Change ([2]; CPT2 subgroup): 51.9 meters
MFIS Total Mean Change ([2]; CPT2 subgroup): 1.0
SF-36 Energy/Fatigue Mean Change ([2]; CPT2 subgroup): 0.8
tolerability ([2]; FAOD patients): well tolerated
12 MWT Mean Change ([2]; LCHAD subgroup): 73.7 meters
MFIS Total Mean Change ([2]; LCHAD subgroup): −9.8
SF-36 Energy/Fatigue Mean Change ([2]; LCHAD subgroup): 19.5
decrease in MFIS ([2]; LCHAD subgroup): 9.8 point
increase in SF-36 energy/fatigue domain ([2]; LCHAD subgroup): 19.5 point
decrease in MFIS ([2]; TFP subgroup (n = 2)): 8.0 point
increase in SF-36 energy/fatigue domain ([2]; TFP subgroup (n = 2)): 25.0 point
12 MWT Mean Change ([2]; VLCAD subgroup): −36.7 meters
MFIS Total Mean Change ([2]; VLCAD subgroup): 15.6
SF-36 Energy/Fatigue Mean Change ([2]; VLCAD subgroup): −17.8
